Measured values taken from patent US20130172294A1, “Treatment with VB-201” (Vascular Biogenics Ltd., priority 2010, published 2013).

What was measured:
[1] = test system: adjuvant-induced arthritis; conditions: in vivo animal model; cited from earlier work
[2] = Repeated daily dose pharmacokinetics of VB-201 in plasma, 14 days (Example 2); assay type: in vivo, human; conditions: for T1/2 (rec. ph.): recovery phase after Day 14
Experimental: Determination of VB-201 concentrations in plasma was performed using an HPLC-MS/MS (high performance liquid chromatography with tandem mass spectrometric detection) assay. Calibration was for a range of from 5 to 500 ng/ml for low doses and from 50 to 5000 ng/ml for high doses. Pharmacokinetic parameters were estimated by using a non-compartmental method, except for the AUC (area under curve), which was determined using a (log-) trapezoidal rule as the area above the previous trough level. […] The subjects were all healthy volunteers. […] 10 subjects received a placebo. The VB-201 was formulated in gelatin capsules enterocoated with Opadry AMB and Acryleze White. The 20 mg dose was originally in the form of 20 mg capsules. […] Pharmacokinetic blood samples for VB-201 determination were collected on Day 0 and Day 14, prior to dosing and 2, 4, 6, 8, 10, 12, 16 and 24 hours after dosing. […] Pharmacokinetic samples were also collected on Day 12 and Day 13, before dosing. Concentration-time curves were constructed for a time period of 24 hours on each of days 1 and 14. In addition, urine samples from the subjects receiving 30 mg VB-201 were assayed for VB-201 by high performance liquid chromatography-tandem mass spectrometry. […] The limit of detection was 1 ng/ml.

SMILES: CCCCCCCCCCCCCCCCOCC(COP(=O)([O-])OCC[N+](C)(C)C)OCCCCC(=O)O (stereo not drawn) [VB-201, 1-hexadecyl-2-(4′-carboxybutyl)-glycerol-3-phosphocholine]
- efficacy in adjuvant-induced arthritis [1]: effective
- multi-day accumulation relative to a single dose, estimated from elimination data ([2]; continued once per day dosing): approximately 4 times
- AUC(0-24) ([2]; daily 5 mg, Day 1): 1731 ng·h/mL
- AUC(0-infinity) ([2]; daily 5 mg, Day 1): 6005 ng·h/mL
- AUMC (0-24) ([2]; daily 5 mg, Day 1): 23670 hours^2*ng/ml
- AUMC (0-infinity) ([2]; daily 5 mg, Day 1): 341432 hours^2*ng/ml
- Cl/F (0-24) ([2]; daily 5 mg, Day 1): 3.92 L/h
- Cmax ([2]; daily 5 mg, Day 1): 117.34 ng/mL
- Kc ([2]; daily 5 mg, Day 1): 0.0250 h⁻¹
- MTT ([2]; daily 5 mg, Day 1): 14.51 h
- T1/2 ([2]; daily 5 mg, Day 1): 32.18 h
- Tmax ([2]; daily 5 mg, Day 1): 10 h
- AUC(0-24) ([2]; daily 5 mg, Day 14): 6238 ng·h/mL
- AUC(0-infinity) ([2]; daily 5 mg, Day 14): 15913 ng·h/mL
- AUMC (0-24) ([2]; daily 5 mg, Day 14): 71173 hours^2*ng/ml
- AUMC (0-infinity) ([2]; daily 5 mg, Day 14): 821875 hours^2*ng/ml
- Accum. (accumulation) ([2]; daily 5 mg, Day 14): 4.75
- Cl/F (0-24) ([2]; daily 5 mg, Day 14): 0.90 L/h
- Cmax ([2]; daily 5 mg, Day 14): 340.31 ng/mL
- Kc ([2]; daily 5 mg, Day 14): 0.0278 h⁻¹
- MTT ([2]; daily 5 mg, Day 14): 11.41 h
- T1/2 ([2]; daily 5 mg, Day 14): 30.95 h
- Tmax ([2]; daily 5 mg, Day 14): 9.67 h
- T1/2 (rec. ph.) ([2]; daily 5 mg): 44.17 h
- AUC(0-24) ([2]; daily 10 mg, Day 1): 3494 ng·h/mL
- AUC(0-infinity) ([2]; daily 10 mg, Day 1): 9912 ng·h/mL
- AUMC (0-24) ([2]; daily 10 mg, Day 1): 45924 hours^2*ng/ml
- AUMC (0-infinity) ([2]; daily 10 mg, Day 1): 440602 hours^2*ng/ml
- Cl/F (0-24) ([2]; daily 10 mg, Day 1): 4.92 L/h
- Cmax ([2]; daily 10 mg, Day 1): 227.92 ng/mL
- Kc ([2]; daily 10 mg, Day 1): 0.0285 h⁻¹
- MTT ([2]; daily 10 mg, Day 1): 14.44 h
- T1/2 ([2]; daily 10 mg, Day 1): 27.09 h
- Tmax ([2]; daily 10 mg, Day 1): 11.33 h
- AUC(0-24) ([2]; daily 10 mg, Day 14): 12617 ng·h/mL
- AUC(0-infinity) ([2]; daily 10 mg, Day 14): 36183 ng·h/mL
- AUMC (0-24) ([2]; daily 10 mg, Day 14): 148375 hours^2*ng/ml
- AUMC (0-infinity) ([2]; daily 10 mg, Day 14): 2596242 hours^2*ng/ml
- Accum. (accumulation) ([2]; daily 10 mg, Day 14): 5.06
- Cl/F (0-24) ([2]; daily 10 mg, Day 14): 0.87 L/h
- Cmax ([2]; daily 10 mg, Day 14): 665.80 ng/mL
- Kc ([2]; daily 10 mg, Day 14): 0.0267 h⁻¹
- MTT ([2]; daily 10 mg, Day 14): 11.72 h
- T1/2 ([2]; daily 10 mg, Day 14): 34.27 h
- Tmax ([2]; daily 10 mg, Day 14): 11 h
- T1/2 (rec. ph.) ([2]; daily 10 mg): 35.77 h
- AUC(0-24) ([2]; daily 20 mg, Day 1): 4186 ng·h/mL
- AUC(0-infinity) ([2]; daily 20 mg, Day 1): 12721 ng·h/mL
- AUMC (0-24) ([2]; daily 20 mg, Day 1): 58323 hours^2*ng/ml
- AUMC (0-infinity) ([2]; daily 20 mg, Day 1): 752013 hours^2*ng/ml
- Cl/F (0-24) ([2]; daily 20 mg, Day 1): 5.21 L/h
- Cmax ([2]; daily 20 mg, Day 1): 294.23 ng/mL
- Kc ([2]; daily 20 mg, Day 1): 0.0307 h⁻¹
- MTT ([2]; daily 20 mg, Day 1): 14.04 h
- T1/2 ([2]; daily 20 mg, Day 1): 30.91 h
- Tmax ([2]; daily 20 mg, Day 1): 12.33 h
- AUC(0-24) ([2]; daily 20 mg, Day 14): 20553 ng·h/mL
- AUC(0-infinity) ([2]; daily 20 mg, Day 14): 47828 ng·h/mL
- AUMC (0-24) ([2]; daily 20 mg, Day 14): 229287 hours^2*ng/ml
- AUMC (0-infinity) ([2]; daily 20 mg, Day 14): 2070644 hours^2*ng/ml
- Accum. (accumulation) ([2]; daily 20 mg, Day 14): 4.90
- Cl/F (0-24) ([2]; daily 20 mg, Day 14): 1.46 L/h
- Cmax ([2]; daily 20 mg, Day 14): 1275.65 ng/mL
- Kc ([2]; daily 20 mg, Day 14): 0.0338 h⁻¹
- MTT ([2]; daily 20 mg, Day 14): 11.16 h
- T1/2 ([2]; daily 20 mg, Day 14): 25.09 h
- Tmax ([2]; daily 20 mg, Day 14): 7.33 h
- T1/2 (rec. ph.) ([2]; daily 20 mg): 30.89 h
- AUC(0-24) ([2]; daily 30 mg, Day 1): 6409 ng·h/mL
- AUC(0-infinity) ([2]; daily 30 mg, Day 1): 67386 ng·h/mL
- AUMC (0-24) ([2]; daily 30 mg, Day 1): 92749 hours^2*ng/ml
- AUMC (0-infinity) ([2]; daily 30 mg, Day 1): 11648110 hours^2*ng/ml
- Cl/F (0-24) ([2]; daily 30 mg, Day 1): 8.55 L/h
- Cmax ([2]; daily 30 mg, Day 1): 416.58 ng/mL
- Kc ([2]; daily 30 mg, Day 1): 0.0220 h⁻¹
- MTT ([2]; daily 30 mg, Day 1): 14.73 h
- T1/2 ([2]; daily 30 mg, Day 1): 72.30 h
- Tmax ([2]; daily 30 mg, Day 1): 19 h
- AUC(0-24) ([2]; daily 30 mg, Day 14): 30555 ng·h/mL
- AUC(0-infinity) ([2]; daily 30 mg, Day 14): 64120 ng·h/mL
- AUMC (0-24) ([2]; daily 30 mg, Day 14): 358861 hours^2*ng/ml
- AUMC (0-infinity) ([2]; daily 30 mg, Day 14): 2456341 hours^2*ng/ml
- Accum. (accumulation) ([2]; daily 30 mg, Day 14): 7.07
- Cl/F (0-24) ([2]; daily 30 mg, Day 14): 1.09 L/h
- Cmax ([2]; daily 30 mg, Day 14): 1821.40 ng/mL
- Kc ([2]; daily 30 mg, Day 14): 0.0333 h⁻¹
- MTT ([2]; daily 30 mg, Day 14): 11.78 h
- T1/2 ([2]; daily 30 mg, Day 14): 23.64 h
- Tmax ([2]; daily 30 mg, Day 14): 10 h
- T1/2 (rec. ph.) ([2]; daily 30 mg): 32.78 h
- VB-201 in urine samples ([2]; daily 30 mg, HPLC-MS/MS, limit of detection 1 ng/ml): No traces of VB-201 could be detected
- induction or inhibition of metabolism ([2]; daily 5-30 mg): does not show significant induction or inhibition of metabolism
- average accumulation rate ([2]; daily 5-30 mg, Day 14): approximately 5
